In US10350203B2, “Multidrug infusion for pain control” (priority 2014, dated 2019):

Columns and labels:
[1] = system: pain due to severe spastic right hemiparesis post stroke; details: for pain relief: human, in vivo, iv
[2] = intrathecal, combined with opioids, up to more than 30 mg/day; cited from earlier work
[3] = system: spinal tissue or meninges; details: dog, in vivo, 1 mg/kg; cited from earlier work
[4] = system: hyperalgesia and allodynia; details: rat, in vivo; cited from earlier work
pain = details: in vivo; cited from earlier work
spinal cord = details: in vivo; cited from earlier work
gliosis = details: rat, in vivo; cited from earlier work

For NCC(CC(=O)O)c1ccc(Cl)cc1 (stereo not shown) [Baclofen], which pain relief [1] is on record?
The pain relief was “no relief”.

With CCCCN1CCCCC1C(=O)Nc1c(C)cccc1C (stereo not shown) [bupivacaine] as the compound, how does the “bladder dysfunction or muscle weakness” value [2] read?
Its value is “did not cause bladder dysfunction or muscle weakness”.

Which pain relief [1] does the source give for CNC1(c2ccccc2Cl)CCCCC1=O (stereo not shown) [ketamine] here?
The pain relief was “did not provide any relief”.

And the tolerability ([1]; intravenous infusions)?
The tolerability was “well tolerated”.

What about the “histological alterations of spinal tissue or meninges” value [3] of the same compound?
Its value is “no histological alterations”.

What does the source list for C=CCN1CC[C@]23c4c5ccc(O)c4O[C@H]2C(=O)CC[C@@]3(O)[C@H]1C5 [naloxone]?
effect on antihyperalgesia and antiallodynia effects of morphine [4]: enhanced; effect on morphine analgesic effect (pain): dramatically enhanced; side effects (pain): without apparent side effects; signs of spinal cord toxicity (spinal cord): have not demonstrated signs of spinal cord toxicity

With O=C1CC[C@@]2(O)[C@H]3Cc4ccc(O)c5c4[C@@]2(CCN3CC2CC2)[C@H]1O5 [naltrexone] as the compound, how does the gliosis (gliosis) read?
Its gliosis is “attenuates gliosis”.
